{"source": "patent US20240269113A1", "about": "“3-(2-(DIMETHYLAMINO)ETHYL)-1H-INDOL-4-yl DERIVATIVES” (priority 2023, published 2024)", "data": [{"assay_type": "in vitro ADME", "description": "The elimination rate constant and half-life (t1/2) were determined using Ln(MS response) vs time plots. […] The human plasma stability data are included in table A.", "units": {"Human Plasma Maximum % Psilocin": "%"}, "values": [{"smiles": "CC(=O)N(C)CCOC(=O)Oc1cccc2[nH]cc(CCN(C)C)c12", "note": "[Compound 87, 3-(2-(dimethylamino)ethyl)-1H-indol-4-yl (2-(N-methylacetamido)ethyl) carbonate]", "Human Plasma Maximum % Psilocin": 91}, {"smiles": "CN(C)CCc1c[nH]c2cccc(OC(=O)CCCc3ccccc3)c12", "note": "[Compound 96, 3-(2-(dimethylamino)ethyl)-1H-indol-4-yl 4-phenylbutanoate]", "Human Plasma Maximum % Psilocin": 75}, {"smiles": "CC(=O)Oc1ccccc1C(=O)Oc1cccc2[nH]cc(CCN(C)C)c12", "note": "[Compound 99, 3-(2-(dimethylamino)ethyl)-1H-indol4-yl 2-acetoxybenzoate]", "Human Plasma Maximum % Psilocin": 100}, {"smiles": "CN(C)CCc1c[nH]c2cccc(OC(=O)Cc3ccccc3)c12", "note": "[Compound 176, 3-(2-(dimethylamino)ethyl)-1H-indol-4-yl 2-phenylacetate]", "Human Plasma Maximum % Psilocin": 100}, {"smiles": "CN(C)CCc1c[nH]c2cccc(OC(=O)c3cccnc3)c12", "note": "[Compound 91, 3-(2-(dimethylamino)ethyl)-1H-indol-4-yl nicotinate]", "Human Plasma Maximum % Psilocin": 100}]}, {"remark": "another data set of the same source", "units": {"Human Hepatocytes Maximum % Psilocin": "%"}, "experimental": "Psilocin was also run as an additional control to monitor psilocin formation in a semi-quantitative manner.\nSamples were analysed by UHPLC-MS/MS—Waters™ Acquity UPLC system, Waters™ Xevo TQ-XS on a Waters™ Acquity UPLC® HSS T3 column (1.8 μm, 2.1 mm×30 mm), mobile phases were water+0.1% formic acid and methanol+0.1% formic acid.\nIn addition, the appearance of psilocin from test compounds was monitored and assessed (as a percentage) against control psilocin peaks (at Time 0) to provide a semi-quantitative measure of psilocin release.", "values": [{"smiles": "CC(=O)Oc1ccccc1C(=O)Oc1cccc2[nH]cc(CCN(C)C)c12", "note": "[Compound 99, 3-(2-(dimethylamino)ethyl)-1H-indol4-yl 2-acetoxybenzoate]", "Human Hepatocytes Maximum % Psilocin": 100}]}]}
